The text below walks through data of patent publication US8377884B2, “Variants of C-type natriuretic peptides” (Biomarin Pharmaceutical Inc., priority 2007, dated 2013).

Where two headings read alike, the source gives them in different places. Bridge positions count the residues as written; N and C are the ends. Square brackets hold non-standard residues; d marks the D form. Ends that are not written are not given here. Peptide text beside a SMILES is read from it. * marks the point of attachment. PEG12 = NCCOCCOCCOCCOCCOCCOCCOCCOCCOCCOCCOCCOCCC(=O)O; Biotin = O=C1N[C@H]2[C@H](CS[C@H]2CCCCC(=O)*)N1; Phe(3,4-Cl2) = N[C@@H](Cc1ccc(Cl)c(Cl)c1)C(=O)O; Phe(3-Me) = Cc1cccc(C[C@H](N)C(=O)O)c1; PEO24 = monodispersed, 1.2 kDa; Heptanoyl = CCCCCCC(=O)*; Pentanoyl = CCCCC(=O)*

In one data set the target is T1, NPR-B (Mus musculus, UniProt Q6VVW5).
T1 construct: Murine NIH3T3 cells express endogenously the CNP signaling receptor, NPR-B; endogenous in cells; host or cells: NIH3T3 (murine fibroblasts)
T1 sequence (Q6VVW5 17-1047): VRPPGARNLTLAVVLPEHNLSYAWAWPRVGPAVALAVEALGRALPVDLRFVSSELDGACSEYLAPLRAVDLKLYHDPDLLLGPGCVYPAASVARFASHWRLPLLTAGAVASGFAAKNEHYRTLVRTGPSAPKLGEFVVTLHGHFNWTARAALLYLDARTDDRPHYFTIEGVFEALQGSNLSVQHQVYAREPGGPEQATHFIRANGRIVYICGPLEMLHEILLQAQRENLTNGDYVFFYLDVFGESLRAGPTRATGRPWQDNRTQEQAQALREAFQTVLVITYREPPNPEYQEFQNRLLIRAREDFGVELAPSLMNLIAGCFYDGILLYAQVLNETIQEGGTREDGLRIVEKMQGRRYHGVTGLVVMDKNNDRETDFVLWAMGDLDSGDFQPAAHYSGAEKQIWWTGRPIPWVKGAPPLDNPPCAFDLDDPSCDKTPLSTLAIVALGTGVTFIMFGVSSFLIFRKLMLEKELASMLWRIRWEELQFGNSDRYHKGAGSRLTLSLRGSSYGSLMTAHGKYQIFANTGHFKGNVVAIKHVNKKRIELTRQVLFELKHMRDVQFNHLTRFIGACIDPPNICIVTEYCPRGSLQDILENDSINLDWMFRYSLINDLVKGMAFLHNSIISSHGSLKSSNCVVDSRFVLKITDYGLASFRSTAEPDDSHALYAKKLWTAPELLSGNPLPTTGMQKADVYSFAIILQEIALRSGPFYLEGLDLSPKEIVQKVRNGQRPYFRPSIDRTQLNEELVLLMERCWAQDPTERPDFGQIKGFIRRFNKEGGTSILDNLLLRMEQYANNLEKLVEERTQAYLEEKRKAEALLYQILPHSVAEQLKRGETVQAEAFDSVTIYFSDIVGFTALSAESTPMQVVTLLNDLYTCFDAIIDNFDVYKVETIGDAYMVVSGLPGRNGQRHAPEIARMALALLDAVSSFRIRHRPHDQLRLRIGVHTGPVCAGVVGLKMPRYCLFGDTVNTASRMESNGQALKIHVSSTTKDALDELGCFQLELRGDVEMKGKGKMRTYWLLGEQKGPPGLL
The data set is described as follows: Stimulation of cGMP production in NIH3T3 cells. In kind it is cell-based, Murine. As to conditions: for cGMP response relative to 1 uM CNP22 (%) at 0.01 µM: read-out: cGMP Response rel. to 1 uM CNP22, 10 nM; for cGMP response relative to 1 uM CNP22 (%) at 1 µM: read-out: cGMP Response rel. to 1 uM CNP22, 1 uM.

In data set [1] the target is neutral endopeptidase (NEP) (Homo sapiens, UniProt P08473). The data set is described as follows: In vitro neutral endopeptidase (NEP) cleavage assay. As to conditions: human, pH 7. The protocol: To determine the effects of amino acid substitutions, amino acid extensions, backbone modifications, side chain modifications and PEGylation on the susceptibility of CNP variants to neutral endopeptidase (NEP) cleavage, peptide cleavage assays were carried out using an in vitro assay that monitored disappearance of the non-cleaved CNP variant.
neutral endopeptidase (NEP), sequence (P08473 whole entry): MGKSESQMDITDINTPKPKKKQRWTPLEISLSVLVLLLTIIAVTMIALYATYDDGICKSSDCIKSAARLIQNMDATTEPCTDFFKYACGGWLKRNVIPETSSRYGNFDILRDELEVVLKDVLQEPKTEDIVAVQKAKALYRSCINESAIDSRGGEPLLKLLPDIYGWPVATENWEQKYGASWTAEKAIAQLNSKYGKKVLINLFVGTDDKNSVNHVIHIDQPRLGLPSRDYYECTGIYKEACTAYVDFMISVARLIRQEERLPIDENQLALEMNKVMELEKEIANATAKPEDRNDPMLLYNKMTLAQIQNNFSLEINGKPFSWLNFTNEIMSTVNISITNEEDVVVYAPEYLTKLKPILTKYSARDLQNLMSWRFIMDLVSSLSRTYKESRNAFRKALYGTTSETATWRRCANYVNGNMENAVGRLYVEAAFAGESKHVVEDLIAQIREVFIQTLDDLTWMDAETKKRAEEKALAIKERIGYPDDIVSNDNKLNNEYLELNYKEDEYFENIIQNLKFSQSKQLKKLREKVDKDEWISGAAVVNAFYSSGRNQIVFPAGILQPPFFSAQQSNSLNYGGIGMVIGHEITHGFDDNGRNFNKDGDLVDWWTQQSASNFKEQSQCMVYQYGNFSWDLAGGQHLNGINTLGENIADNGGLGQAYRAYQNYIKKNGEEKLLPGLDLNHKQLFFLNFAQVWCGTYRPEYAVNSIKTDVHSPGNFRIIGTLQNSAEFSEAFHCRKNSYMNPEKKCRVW
Recombinant human NEP (1 ug/mL final concentration) was added to 100 uM CNP variant diluted in 0.1 M Tris, pH 7. The reaction mixture was incubated at 37° C. for various periods of time, and the reaction was quenched with EDTA (10 mM final) followed by heat denaturation. The reaction mixture was reduced and then the reaction products were analyzed using HPLC and mass spectroscopy. The half-life of the CNP variant was calculated based on the disappearance of intact CNP variant over time.

The mark [2] stands for this setting: NIH3T3 cells, 10 nM natriuretic peptide, normalized to cell number and cGMP production with 1 uM wtCNP22.
Where [3] appears, read: NIH3T3 cells, 1 uM natriuretic peptide, normalized to cell number and cGMP production with 1 uM wtCNP22.
The mark [4] stands for this setting: recombinant human neutral endopeptidase (NEP).

As usually defined, the half-life is how long it takes for the measured level to halve. As to `CC[C@H](C)[C@@H]1NC(=O)[C@H](CCCNC(=N)N)NC(=O)[C@H](CC(=O)O)NC(=O)[C@H](CC(C)C)NC(=O)[C@H](CCCCN)NC(=O)[C@H](CC(C)C)NC(=O)CNC(=O)[C@H](Cc2ccccc2)NC(=O)[C@@H](NC(=O)CNC(=O)CNC(=O)[C@H](CO)NC(=O)[C@H](CC(C)C)NC(=O)CNC(=O)CCOCCOCCOCCOCCOCCOCCOCCOCCOCCOCCOCCOCCNC(=O)CCCC[C@@H]2SC[C@@H]3NC(=O)N[C@@H]32)CSSC[C@@H](C(=O)O)NC(=O)CNC(=O)[C@H](CC(C)C)NC(=O)CNC(=O)[C@H](CO)NC(=O)[C@H](CCSC)NC(=O)[C@H](CO)NC(=O)CNC1=O` [(PEO12)-Biotin-CNP22, K4G] ({Biotin-PEG12}-GLSGGCFGLKLDRIGSMSGLGC-OH; disulfide 6-22; C-terminus assumed), on NPR-B (NIH3T3, […]), the cGMP response relative to 1 uM CNP22 (%) at 0.01 µM was found to be 10% and the cGMP response relative to 1 uM CNP22 (%) at 1 µM amounted to 27%. This compound yielded a half-life at 100 uM in data set [1] of 1.67 h.
In the case of `CC[C@H](C)[C@@H]1NC(=O)[C@H](CCCNC(=N)N)NC(=O)[C@H](CC(=O)O)NC(=O)[C@H](CC(C)C)NC(=O)[C@H](CCCCN)NC(=O)[C@H](CC(C)C)NC(=O)CNC(=O)[C@H](Cc2ccccc2)NC(=O)[C@@H](NC(=O)CNC(=O)[C@H](CCCCN)NC(=O)[C@H](CO)NC(=O)[C@H](CC(C)C)NC(=O)CNC(=O)CCOCCOCCOCCOCCOCCOCCOCCOCCOCCOCCOCCOCCNC(=O)CCCC[C@@H]2SC[C@@H]3NC(=O)N[C@@H]32)CSSC[C@@H](C(=O)O)NC(=O)CNC(=O)[C@H](CC(C)C)NC(=O)CNC(=O)[C@H](CO)NC(=O)[C@H](CCSC)NC(=O)[C@H](CO)NC(=O)CNC1=O` [(PEO12)-Biotin-CNP22], on NPR-B (NIH3T3, […]), the cGMP response relative to 1 uM CNP22 (%) at 0.01 µM stood at 19% and the cGMP response relative to 1 uM CNP22 (%) at 1 µM stood at 81%. Besides, the half-life at 100 uM in data set [1] is 2.33 h.
For `CC[C@H](C)[C@@H]1NC(=O)[C@H](CCCNC(=N)N)NC(=O)[C@H](CC(=O)O)NC(=O)[C@H](CC(C)C)NC(=O)[C@H](CCCCN)NC(=O)[C@H](CC(C)C)NC(=O)[C@H]([C@@H](C)O)NC(=O)[C@H](Cc2ccccc2)NC(=O)[C@@H](NC(=O)CNC(=O)[C@H](CCCNC(=N)N)NC(=O)[C@H](CO)NC(=O)[C@H](CC(C)C)NC(=O)CN)CSSC[C@@H](C(=O)O)NC(=O)CNC(=O)[C@H](CC(C)C)NC(=O)CNC(=O)[C@H](CO)NC(=O)[C@H](CCSC)NC(=O)[C@H](CO)NC(=O)CNC1=O` [AC] (H-GLSRGCFTLKLDRIGSMSGLGC-OH; disulfide 6-22 (inferred); N-terminus and C-terminus assumed), at NPR-B (setting [2]), the cGMP response relative to 1 uM CNP22 (%) at 0.01 µM came to 11 ± 2%. Further, the cGMP response relative to 1 uM CNP22 (%) at 1 µM on NPR-B (setting [3]) stood at 66 ± 16%. For the same compound, the half-life at 100 uM in data set [1] (setting [4]) was found to be 1.33 h.
For the compound `CC[C@H](C)[C@@H]1NC(=O)[C@H](CCCNC(=N)N)NC(=O)[C@H](CC(=O)O)NC(=O)[C@H](CC(C)C)NC(=O)[C@H](CCCCN)NC(=O)[C@H](CC(C)C)NC(=O)CNC(=O)[C@H](Cc2ccccc2)NC(=O)[C@@H](NC(=O)CNC(=O)[C@H](CCCNC(=N)N)NC(=O)[C@H](CO)NC(=O)[C@H](CC(C)C)NC(=O)CN)CSSC[C@@H](C(=O)O)NC(=O)CNC(=O)[C@H](CC(C)C)NC(=O)CNC(=O)[C@H](CO)NC(=O)[C@H](CCSC)NC(=O)[C@H](CO)NC(=O)CNC1=O` [AH] (H-GLSRGCFGLKLDRIGSMSGLGC-OH; disulfide 6-22 (inferred); N-terminus and C-terminus assumed), the cGMP response relative to 1 uM CNP22 (%) at 0.01 µM on NPR-B (setting [2]) stood at 59%. At NPR-B (setting [3]), the cGMP response relative to 1 uM CNP22 (%) at 1 µM is 121%. The half-life at 100 uM in data set [1] (setting [4]) amounted to 1.33 h.
In the case of `CCCCC(=O)N[C@@H](CCC(=O)O)C(=O)N[C@@H](CC(C)C)C(=O)N[C@@H](CO)C(=O)N[C@@H](CCC(=O)O)C(=O)NCC(=O)N[C@H]1CSSC[C@@H](C(=O)O)NC(=O)CNC(=O)[C@H](CC(C)C)NC(=O)CNC(=O)[C@H](CO)NC(=O)[C@H](CCSC)NC(=O)[C@H](CO)NC(=O)CNC(=O)[C@H]([C@@H](C)CC)NC(=O)[C@H](CCCNC(=N)N)NC(=O)[C@H](CC(=O)O)NC(=O)[C@H](CC(C)C)NC(=O)[C@H](CCCCN)NC(=O)[C@H](CC(C)C)NC(=O)CNC(=O)[C@H](Cc2ccccc2)NC1=O` [AV] (Pentanoyl-ELSEGCFGLKLDRIGSMSGLGC-OH; disulfide 6-22 (inferred); C-terminus assumed), the half-life at 100 uM in data set [1] (setting [4]) amounted to 2 h.
`CCCCCCC(=O)N[C@@H](CCC(=O)O)C(=O)N[C@@H](CC(C)C)C(=O)N[C@@H](CO)C(=O)N[C@@H](CCC(=O)O)C(=O)NCC(=O)N[C@H]1CSSC[C@@H](C(=O)O)NC(=O)CNC(=O)[C@H](CC(C)C)NC(=O)CNC(=O)[C@H](CO)NC(=O)[C@H](CCSC)NC(=O)[C@H](CO)NC(=O)CNC(=O)[C@H]([C@@H](C)CC)NC(=O)[C@H](CCCNC(=N)N)NC(=O)[C@H](CC(=O)O)NC(=O)[C@H](CC(C)C)NC(=O)[C@H](CCCCN)NC(=O)[C@H](CC(C)C)NC(=O)CNC(=O)[C@H](Cc2ccccc2)NC1=O` [AW] (Heptanoyl-ELSEGCFGLKLDRIGSMSGLGC-OH; disulfide 6-22; C-terminus assumed): in data set [1], the half-life at 100 uM is under 0.333 h.
Still for that read-out and setting: in the case of `CC[C@H](C)[C@@H]1NC(=O)[C@H](CCCNC(=N)N)NC(=O)[C@H](CC(=O)O)NC(=O)[C@H](CC(C)C)NC(=O)[C@H](CCCCN)NC(=O)[C@H](CC(C)C)N(C)C(=O)CNC(=O)[C@H](Cc2ccccc2)NC[C@@H](NC(=O)CNC(=O)[C@H](CCCCN)NC(=O)[C@H](CO)NC(=O)[C@H](CC(C)C)NC(=O)CN)CSSC[C@@H](C(=O)O)NC(=O)CNC(=O)[C@H](CC(C)C)N(C)C(=O)CNC(=O)[C@H](CO)NC(=O)[C@H](CCSC)NC(=O)[C@H](CO)NC(=O)CNC1=O` [J] it was 0.833 h.
In the case of `CC[C@H](C)[C@@H]1NC(=O)[C@H](CCCNC(=N)N)NC(=O)[C@H](CC(=O)O)NC(=O)[C@H](CC(C)C)NC(=O)[C@H](CCCCN)NC(=O)[C@H](CC(C)C)NC(=O)CNC(=O)[C@H](Cc2ccc(Cl)c(Cl)c2)NC(=O)[C@@H](NC(=O)CNC(=O)CNC(=O)[C@H](CO)NC(=O)[C@H](CC(C)C)NC(=O)CN)CSSC[C@@H](C(=O)O)NC(=O)CNC(=O)[C@H](CC(C)C)NC(=O)CNC(=O)[C@H](CO)NC(=O)[C@H](CCSC)NC(=O)[C@H](CO)NC(=O)CNC1=O` [V] (H-GLSGGC[Phe(3,4-Cl2)]GLKLDRIGSMSGLGC-OH; disulfide 6-22), the half-life at 100 uM in data set [1] (setting [4]) amounted to 1.13 h.
`CC[C@H](C)[C@@H]1NC(=O)[C@H](CCCNC(=N)N)NC(=O)[C@H](CC(=O)O)NC(=O)[C@H](CC(C)C)NC(=O)[C@H](CCCCN)NC(=O)[C@H](CC(C)C)NC(=O)CNC(=O)[C@H](Cc2cccc(C)c2)NC(=O)[C@@H](NC(=O)CNC(=O)CNC(=O)[C@H](CO)NC(=O)[C@H](CC(C)C)NC(=O)CN)CSSC[C@@H](C(=O)O)NC(=O)CNC(=O)[C@H](CC(C)C)NC(=O)CNC(=O)[C@H](CO)NC(=O)[C@H](CCSC)NC(=O)[C@H](CO)NC(=O)CNC1=O` [X] (H-GLSGGC[Phe(3-Me)]GLKLDRIGSMSGLGC-OH; disulfide 6-22): in data set [1] (setting [4]), the half-life at 100 uM came to 1.13 h.
For the compound “PEO24-CNP22, K4R: CNP22, K4R conjugated at the N-terminus to PEO24 (PEO24-GLSRGCFGLKLDRIGSMSGLGC; disulfide 6-22 (inferred); UniProt P23582 105-126, looked up, variant K4R)”, in the data set with NPR-B (setting [2]), the “cGMP Response rel. to 1 uM CNP22, 10 nM” value was 15. Besides, the “cGMP Response rel. to 1 uM CNP22, 1 uM” value with NPR-B (setting [3]) is on record as 56.
On the same counts, the results for “PEO24-R-CNP22, K4R: R-CNP22, K4R conjugated at the N-terminus to PEO24 (PEO24-RGLSRGCFGLKLDRIGSMSGLGC; disulfide 7-23 (inferred))” are 15 ± 2 and 75 ± 12.
